Reference: patent publication US20180177890A1, “LIGAND-CYTOTOXIC DRUG CONJUGATE, PREPARATION METHOD THEREOF, AND USE THEREOF” (priority 2015, published 2018)
Square brackets hold non-standard residues; d marks the D form. Peptide text beside a SMILES is read from it. Dolaproine = CO[C@@H]([C@@H]1CCCN1)[C@@H](C)C(=O)O; Dil = CC[C@H](C)[C@H](NC)[C@@H](CC(=O)O)OC; Phe(2-Me) = Cc1ccccc1C[C@H](N)C(=O)O; 2Thi = N[C@@H](Cc1cccs1)C(=O)O; NMeV = CN[C@H](C(=O)O)C(C)C

Experiments:
HepG2 tumor cells = test: In vitro tumor cell proliferation inhibition test (CCK-8), HepG2; type: cell-based; settings: Homo sapiens, HepG2, 76 hours incubation
Experimental: (§1) The objective of this experiment is to test the in vitro inhibition effect of the formula (D) according to the present invention on the proliferation of HepG2 tumor cells (human hepatocellular carcinoma cells, Chinese Academy of Sciences cell bank, No. #TCHu 72) and A549 tumor cells (human lung adenocarcinoma, Chinese Academy of Sciences cell bank, No. #TCHu150). The cells were treated with different concentrations of the compound in vitro. After 76 hours incubation, the cell proliferation was detected by CCK-8 reagent (Cell Counting Kit-8, Dojindo, No. CK04), and the activity of the compound in vitro was evaluated according to the IC50 value.
(§2) The following is an example of a method for in vitro proliferation inhibition test of HepG2 cells for the purpose of exemplifying the test of the compounds according to the present invention for the proliferation inhibitory activity on tumor cells in vitro. This method is also applicable to, but not limited to, the in vitro proliferation inhibition tests on other tumor cells.
HepG2 cells in logarithmic growth phase were washed with PBS (phosphate buffer, ThermoFisher) once, and added with 2-3 ml trypsin (0.25% trypsin-EDTA (1×), Gibico, Life Technologies) to digest for 2-3 min. Then, 10-15 ml of cell culture medium (DMEM/F12 medium, Invitrogen; 10% (v/v)) was added after the cells were completely digested. The digested HepG2 cells were eluted, and centrifuged at 1000 rpm for 3 min. The supernatant was discarded, and then 10-20 ml of cell culture medium were added to resuspend the cells to prepare a single cell suspension.
The HepG2 single cell suspension was mixed and the cell density was adjusted to 6×10^4 cells/ml with cell culture medium. The density-adjusted cell suspension was mixed uniformly and added to a 96-well cell culture plate at 100 μl/well. The plates were incubated in a 5% CO2 incubator at 37° C. for 18-20 hours.
(§3) The compound was dissolved with DMSO (dimethylsulfoxide, Shanghai Titan Technology Co., Ltd.) to prepare a storage solution having an initial concentration of 10 mM.
(§4) 10 μl of 10 mM compound was added to the wells of the first column of a U-shaped bottom 96-well plate (sample plate 1), and 90 μl of DMSO was added to each compound sample well of the first column, i.e., the stock solution was diluted 10 times as the starting point. Then, 3-fold gradient dilutions were performed, with each compound concentration […]. The diluent was DMSO solution. 60 μl of 100% DMSO was added to 12th column and 20 μl of 1 mM positive drug control was added to 11th column.
(§5) In a new U-shaped bottom 96-well plate (sample plate 2), each sample from the sample plate 1 was diluted 20 times with the complete medium. Then, in another new U-shaped bottom 96-well plate (sample plate 3), each well sample from the sample plate 2 was subjected to a final 10-fold dilution.
(§6) After the cell pre-culture was completed, the 96-well cell culture plate was removed and the supernatant was discarded. Each sample dilution in the 96-well sample plate 3 was successively added to a 96-well cell culture plate at 100 μl/well. Each compound sample was tested in duplicate at each concentration. […] After completion of the loading operation, the 96-well cell culture plate was incubated at 37° C. for about 76 hours in a 5% CO2 incubator.
(§7) The 96-well cell culture plate was taken and CCK-8 was added to each well at […]. The cell culture plate was gently pat and mixed for more than 10 times and incubated at 37° C. for 2 hours in a 5% CO2 incubator.
(§8) The 96-well cell culture plate was taken and placed in a microplate reader (PerkinElmer, VICTOR 3) and the absorbance at 450 nm was measured using the microplate reader.
(§9) Data was analyzed with Microsoft Excel and Graphpad Prism 5.

A549 tumor cells = test: In vitro tumor cell proliferation inhibition test (CCK-8), A549; type: cell-based; settings: Homo sapiens, A549, 76 hours incubation
Experimental: as §1, §2, §3, §4, §5, §6, §7, §8
In accordance with the above procedure, the inhibition activity of the compound according to the present invention on the proliferation of A549 tumor cells in vitro was tested. The cell culture medium was also DMEM/F12.
as §9

[1] = tested on: NCI-N87 cells (HER2 overexpressing human gastric cancer cells); test: Tumor inhibition rate test of NCI-N87 transplanted tumor in nude mice; type: in vivo; settings: 60 mg/kg (first dose doubling), IV
Text: To evaluate and compare the effect of antibody-cytotoxin conjugates according to the present invention on transplanted tumors of NCI-N87 cells (HER2 overexpressing human gastric cancer cells, ATCC, CRL-5822) in nude mice. […] Preparation method: all prepared with physiological saline. […] Feeding environment: SPF level. […] T/C (%)=(T−T0)/(C−C0)×100%, wherein T and C represent the tumor volume at the end of the experiment; T0 and C0 represent the tumor volume at the beginning of the experiment. […] The number of mice at the beginning of the experiment was as follows: Control group n=12, Treatment group n=6.

| Compound | IC50 (HepG2 tumor cells) [nM] | IC50 (A549 tumor cells) [nM] | Mean tumor volume (mm^3) D0 ([1]; D0, 7, D0 = time of first administration) [mm^3] | % T/C D21 ([1]; D0, 7, D21) [%] | % tumor inhibition rate D21 ([1]; D0, 7, D21) [%] | Mean tumor volume (mm^3) D21 ([1]; D0, 7, D21) [mm^3] |
| --- | --- | --- | --- | --- | --- | --- |
| CC[C@H](C)[C@@H]([C@@H](CC(=O)N1CCC[C@H]1[C@H](OC)[C@@H](C)C(=O)N[C@@H](Cc1ccccc1C)C(=O)O)OC)N(C)C(=O)[C@@H](NC(=O)[C@@H](NC)C(C)C)C(C)C [Compound 34, (S)-2-((2R,3R)-3-((S)-1-((3R,4S,5S)-4-((S)—N,3-dimethyl-2-((S)-3-methyl-2-(methylamino)butanamido)butanamido)-3-methoxy-5-methylheptanoyl)pyrrolidin-2-yl)-3-methoxy-2-methylpropanamido)-3-(o-tolyl)propanoic acid] (H-[NMeV]V[Dil][Dolaproine][Phe(2-Me)]-OH) | 18.3 | 32.3 | – | – | – | – |
| CC[C@H](C)[C@@H]([C@@H](CC(=O)N1CCC[C@H]1[C@H](OC)[C@@H](C)C(=O)N[C@@H](Cc1cccs1)C(=O)O)OC)N(C)C(=O)[C@@H](NC(=O)[C@@H](NC)C(C)C)C(C)C [Compound 35, (S)-2-((2R,3R)-3-((S)-1-((3R,4S,5S)-4-((S)—N,3-dimethyl-2-((S)-3-methyl-2-(methylamino)butanamido)butanamido)-3-methoxy-5-methylheptanoyl)pyrrolidin-2-yl)-3-methoxy-2-methylpropanamido)-3-(thiophen-2-yl)propanoic acid] (H-[NMeV]V[Dil][Dolaproine][2Thi]-OH) | 30.6 | 18 | – | – | – | – |
| Pertuzumab | – | – | 115.5 | 42 | 58 | 380.1 |
